Data taken from PMC12613816, “Discovery of Novel Isoxazole-Based Small-Molecule Toll-Like Receptor 8 Antagonists” (Journal of Medicinal Chemistry, 2025).

How the values were obtained:
[1] = biological target: T1, TLR8 (Homo sapiens, UniProt Q9NR97); experiment: Inhibition of TL8-506-stimulated NF-κB activity (SEAP reporter, QuantiBlue) in hTLR8-HEK293 reporter cells; type: cell-based; set-up: host or cells: HEK293 (HEK-Blue hTLR8); conditions: for inhibition at 10 µM: read-out: % inhibition at 10 µM ± SEM (NF-κB activity); for IC50: read-out: IC50 [μM] (95% CI) hTLR8-HEK293, inhibition of NF-κB activity, 1 h preincubation
T1 sequence (Q9NR97 27-1041): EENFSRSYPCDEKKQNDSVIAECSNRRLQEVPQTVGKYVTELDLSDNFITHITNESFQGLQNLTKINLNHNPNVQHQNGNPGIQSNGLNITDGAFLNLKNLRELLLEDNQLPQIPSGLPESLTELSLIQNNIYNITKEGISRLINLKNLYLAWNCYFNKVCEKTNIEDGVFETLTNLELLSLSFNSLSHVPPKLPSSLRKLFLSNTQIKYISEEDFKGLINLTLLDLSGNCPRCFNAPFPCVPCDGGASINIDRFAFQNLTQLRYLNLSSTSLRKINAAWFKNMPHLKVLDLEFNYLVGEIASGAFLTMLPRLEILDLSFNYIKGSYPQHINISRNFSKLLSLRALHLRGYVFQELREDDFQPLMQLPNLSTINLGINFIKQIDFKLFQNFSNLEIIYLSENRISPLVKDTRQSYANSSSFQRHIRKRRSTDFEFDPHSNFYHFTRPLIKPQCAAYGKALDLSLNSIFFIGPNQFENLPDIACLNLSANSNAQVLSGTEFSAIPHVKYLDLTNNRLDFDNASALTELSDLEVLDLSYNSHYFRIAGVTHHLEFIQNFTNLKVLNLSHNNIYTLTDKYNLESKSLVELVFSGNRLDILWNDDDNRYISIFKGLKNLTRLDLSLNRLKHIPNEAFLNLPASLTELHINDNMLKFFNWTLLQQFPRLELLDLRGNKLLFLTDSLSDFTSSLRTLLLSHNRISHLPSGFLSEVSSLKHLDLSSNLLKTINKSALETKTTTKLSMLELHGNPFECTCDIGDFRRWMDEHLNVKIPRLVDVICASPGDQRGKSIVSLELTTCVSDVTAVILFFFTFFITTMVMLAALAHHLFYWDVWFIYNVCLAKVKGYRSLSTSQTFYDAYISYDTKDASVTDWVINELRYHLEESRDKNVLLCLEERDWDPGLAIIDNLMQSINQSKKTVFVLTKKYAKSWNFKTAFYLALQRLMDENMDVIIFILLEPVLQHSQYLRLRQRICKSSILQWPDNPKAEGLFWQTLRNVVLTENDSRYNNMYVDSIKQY

[2] = biological target: T1, TLR8; conditions: TL8-506 alone
[3] = 10 µM compound, TL8-506 (0.6 μM) 24 h, hTLR8-HEK293

Row | Molecule | inhibition at 10 µM [1, 3] | IC50 ([1]; TL8-506 (0.6 μM) 24 h) | also measured
1 | Cc1noc(C)c1COc1cccc(C(=O)N2CCCC(C)C2CN)c1 (stereo not shown) [Compound 2] | 3 ± 2% | – | –
2 | Cc1noc(C)c1COc1cccc(C(=O)N2CCN(C)CC2C)c1 (stereo not shown) [Compound 3] | -6 ± 2% | – | –
3 | Cc1noc(C)c1COc1ccc(C(=O)NCC(c2c(F)cccc2Cl)N(C)C)cc1 (stereo not shown) [Compound 5] | 37 ± 7% | – | –
4 | Cc1noc(C)c1COc1cccc(C(=O)NCCN(C(C)C)C(C)C)c1 [Compound 6] | 9 ± 4% | – | –
5 | Cc1noc(C)c1COc1cccc(C(=O)N2CCCN(Cc3ccc(C(F)(F)F)cc3)CC2)c1 [Compound 7] | 5 ± 7% | – | –
6 | CCN1CCC(CNC(=O)c2cccc(OCc3c(C)noc3C)c2)CC1 [Compound 8] | 20 ± 4% | – | –
7 | COc1cc(C(=O)NCCN2CCCC2)ccc1OCc1c(C)noc1C [Compound 11] | – | 6.62 µM | –
8 | Cc1noc(C)c1COc1ccc(C(=O)N2CCN(Cc3ccccc3)CC2)cc1 [Compound 17, 4-Benzylpiperazin-1-yl(4-((3,5-Dimethylisoxazol-4-yl)methoxy)phenyl)methanone] | 52 ± 4% | – | inhibition of NF-κB at 10 μM (in words) ([1]; hTLR8-HEK293): moderate
9 | Cc1noc(C)c1COc1ccc(C(=O)NCCN2CCCC2)cc1 [Compound 18, 4-((3,5-Dimethylisoxazol-4-yl)methoxy)-N-(2-(pyrrolidin-1-yl)ethyl)benzamide] | 61 ± 3% | – | –
10 | Cc1noc(C)c1COc1ccc(C(=O)NC2CCN(C)C2)cc1 (stereo not shown) [Compound 19, 4-((3,5-Dimethylisoxazol-4-yl)methoxy)-N-(1-methylpyrrolidin-3-yl)benzamide] | 89 ± 2% | 3.06 µM | –
11 | Cc1noc(C)c1COc1ccc(C(=O)NN2CCN(C)CC2)cc1 [Compound 20, 4-((3,5-Dimethylisoxazol-4-yl)methoxy)-N-(4-methylpiperazin-1-yl)benzamide] | 63 ± 0.7% | – | –
12 | Cc1noc(C)c1COc1ccc(C(=O)N2CCC(N3CCCC3)CC2)cc1 [Compound 21, (4-((3,5-Dimethylisoxazol-4-yl)methoxy)phenyl)(4-(pyrrolidin-1-yl)piperidin-1-yl)methanone] | 75 ± 2% | – | –
13 | COc1cc(C(=O)N2CCN(Cc3ccccc3)CC2)ccc1OCc1c(C)noc1C [Compound 22, (4-Benzylpiperazin-1-yl)(4-((3,5-dimethylisoxazol-4-yl)methoxy)-3-methoxyphenyl)methanone] | 54 ± 3% | – | inhibition of NF-κB at 10 μM (in words) ([1]; hTLR8-HEK293): moderate
14 | COc1cc(C(=O)NN2CCN(C)CC2)ccc1OCc1c(C)noc1C [Compound 23, 4-((3,5-Dimethylisoxazol-4-yl)methoxy)-3-methoxy-N-(4-methylpiperazin-1-yl)benzamide] | 57 ± 3% | – | inhibition of NF-κB at 10 μM (in words) ([1]; hTLR8-HEK293): moderate
15 | COc1cc(C(=O)N2CCC(N3CCCC3)CC2)ccc1OCc1c(C)noc1C [Compound 24, (4-((3,5-Dimethylisoxazol-4-yl)methoxy)-3-methoxyphenyl)(4-(pyrrolidin-1-yl)piperidin-1-yl)methanone] | 96 ± 2% | 3.46 µM | –
16 | COc1cc(C(=O)N2CCC(N3CCCCC3)CC2)ccc1OCc1c(C)noc1C [Compound 26, [1,4′-Bipiperidin]-1′-yl(4-((3,5-dimethylisoxazol-4-yl)methoxy)-3-methoxyphenyl)methanone] | 77 ± 4% | 18.3 µM | –
17 | COc1cc(C(=O)NC2CCN(C)C2)ccc1OCc1c(C)noc1C (stereo not shown) [Compound 27, 4-((3,5-Dimethylisoxazol-4-yl)methoxy)-3-methoxy-N-(1-methylpyrrolidin-3-yl)benzamide] | 84 ± 4% | 8.15 µM | –

Row | Molecule | inhibition at 10 µM [1, 3] | IC50 ([1]; TL8-506 (0.6 μM) 24 h) | also measured
18 | COc1cc(C(=O)NC2CCN(C(C)C)CC2)ccc1OCc1c(C)noc1C [Compound 28, 4-((3,5-Dimethylisoxazol-4-yl)methoxy)-N-(1-isopropylpiperidin-4-yl)-3-methoxybenzamide] | 97 ± 1% | 1.73 µM | –
19 | CCN1CCC(NC(=O)c2ccc(OCc3c(C)noc3C)c(OC)c2)C1 (stereo not shown) [Compound 29, 4-((3,5-Dimethylisoxazol-4-yl)methoxy)-N-(1-ethylpyrrolidin-3-yl)-3-methoxybenzamide] | 72 ± 5% | – | –
20 | COc1cc(C(=O)N2CCN(CCO)CC2)ccc1OCc1c(C)noc1C [Compound 30, (4-((3,5-Dimethylisoxazol-4-yl)methoxy)-3-methoxyphenyl)(4-(2-hydroxyethyl)piperazin-1-yl)methanone] | 24 ± 9% | – | inhibition of NF-κB at 10 μM (in words) ([1]; hTLR8-HEK293): low inhibition
21 | CCCN1CCC(NC(=O)c2ccc(OCc3c(C)noc3C)c(OC)c2)CC1 [Compound 31, 4-((3,5-Dimethylisoxazol-4-yl)methoxy)-3-methoxy-N-(1-propylpiperidin-4-yl)benzamide] | 98 ± 0.3% | 1.66 µM | –
22 | COc1cc(C(=O)NCC2CCN(C)C2)ccc1OCc1c(C)noc1C (stereo not shown) [Compound 32, 4-((3,5-Dimethylisoxazol-4-yl)methoxy)-3-methoxy-N-((1-methylpyrrolidin-3-yl)methyl)benzamide] | 77 ± 5% | – | –
23 | COc1cc(C(=O)NC2CCN(C)CC2)ccc1OCc1c(C)noc1C [Compound 33, 4-((3,5-Dimethylisoxazol-4-yl)methoxy)-3-methoxy-N-(1-methylpiperidin-4-yl)benzamide] | 94 ± 2% | – | –
24 | Cc1noc(C)c1COc1ccc(C(=O)NC2CCN(C)CC2)cc1 [Compound 34, 4-((3,5-Dimethylisoxazol-4-yl)methoxy)-N-(1-methylpiperidin-4-yl)benzamide] | 97 ± 0.9% | 1.68 µM | –
25 | Cc1noc(C)c1COc1ccc(C(=O)NC2CCN(C(C)C)CC2)cc1 [Compound 35, 4-((3,5-Dimethylisoxazol-4-yl)methoxy)-N-(1-isopropylpiperidin-4-yl)benzamide] | 99 ± 0.2% | 0.99 µM | –
26 | Cc1noc(C)c1COc1ccc(C(=O)N2CCN(CCO)CC2)cc1 [Compound 36, (4-((3,5-Dimethylisoxazol-4-yl)methoxy)phenyl)(4-(2-hydroxyethyl)piperazin-1-yl)methanone] | 26 ± 2% | – | inhibition of NF-κB at 10 μM (in words) ([1]; hTLR8-HEK293): low inhibition
27 | Cc1noc(C)c1COc1ccc(C(=O)NCC2CCN(C)C2)cc1 (stereo not shown) [Compound 37, 4-((3,5-Dimethylisoxazol-4-yl)methoxy)-N-((1-methylpyrrolidin-3-yl)methyl)benzamide] | 80 ± 2% | – | –
28 | CCCN1CCC(NC(=O)c2ccc(OCc3c(C)noc3C)cc2)CC1 [Compound 38, 4-((3,5-Dimethylisoxazol-4-yl)methoxy)-N-(1-propylpiperidin-4-yl)benzamide] | 100 ± 0.1% | 0.78 µM | –
29 | CCN1CCC(NC(=O)c2ccc(OCc3c(C)noc3C)cc2)CC1 [Compound 39, 4-((3,5-Dimethylisoxazol-4-yl)methoxy)-N-(1-ethylpiperidin-4-yl)benzamide] | 100 ± 0.2% | 1.1 µM | –
30 | CCCCN1CCC(NC(=O)c2ccc(OCc3c(C)noc3C)cc2)CC1 [Compound 40, N-(1-Butylpiperidin-4-yl)-4-((3,5-dimethylisoxazol-4-yl)methoxy)benzamide] | 99 ± 0.4% | 0.73 µM | –
31 | C=CCN1CCC(NC(=O)c2ccc(OCc3c(C)noc3C)cc2)CC1 [Compound 41, N-(1-Allylpiperidin-4-yl)-4-((3,5-dimethylisoxazol-4-yl)methoxy)benzamide] | 99 ± 0.7% | 0.5 µM | –
32 | Cc1noc(C)c1COc1ccc(C(=O)NC2CCNCC2)cc1 [Compound 43, 4-((3,5-Dimethylisoxazol-4-yl)methoxy)-N-(piperidin-4-yl)benzamide] | 32% | – | –
33 | CCOC(=O)C1=Cc2ccc(-c3cccc(C#N)c3)cc2N=C(N)C1 [TL8-506] | – | – | ECmax [%] (95% CI) of TL8-506 [2]: 97.6 (92.9-104.7) %; EC50 ([2]; read-out: EC50 [µM] (95% CI) of TL8-506): 0.19 µM
34 | (4-((3,5-Dimethylisoxazol-4-yl)methoxy)-3-methoxyphenyl)(5-methylhexahydropyrrolo[3,4-c]pyrrol-2(1H)-yl)methanone [Compound 25] | – | – | % inhibition at 10 µM ± SEM (NF-κB activity) [1, 3]: 68 ± 6%
